# Measurements reported in patent publication US20250123269A1 (priority 2023, published 2025).
# Structures can show the parent of a compound that is named as a salt. Peptide text beside a SMILES is read from it. * marks the point of attachment. Decanoyl = CCCCCCCCCC(=O)*; CH2Cl = ClC*
# How the values were obtained:
# MERS-COV = assay type: cell-based
# 229E-CoV = test: organism not typed; assay type: cell-based; conditions: for IC50: 48 h
# [1] = tested on: WT SARS-COV-2 (USA-WA1/2020); assay type: cell-based
# SARS-COV-2 = conditions: cited from earlier work
# SARS-COV-2 (WA1/2020) = assay type: cell-based
# [2] = molecular target: main protease of SARS-COV-2 (Severe acute respiratory syndrome coronavirus 2, UniProt P0DTD1); conditions: cited from earlier work
# SARS-COV-2 omicron JN.1 = test: microbe, parasite or virus in culture; assay type: cell-based; conditions: Severe acute respiratory syndrome coronavirus 2, 48 h; for inhibition at 36 µM: read-out: replication inhibition
Compound,dose-dependent inhibition of infection [1],inhibition of SARS-COV-2 infection (dose-response curve) [1],inhibition of infection [1],IC50 (SARS-COV-2 omicron JN.1) [µM],inhibition at 36 µM (SARS-COV-2 omicron JN.1) [%],other results
"CC(C)(C)[C@H](NC(=O)C(F)(F)F)C(=O)N1C[C@H]2[C@@H]([C@H]1C(=O)N[C@H](C#N)C[C@@H]1CCNC1=O)C2(C)C [nirmatrelvir, Nirmatrelvir]",dose-dependent inhibition of infection,strong inhibition efficacy,nearly completely inhibited,,,CPE inhibition (MERS-COV): approximately 90%; IC50 (229E-CoV): 0.818 to 1.03 µM
Cn1cnc(Cn2c(=O)[nH]/c(=N\c3cc4cn(C)nc4cc3Cl)n(Cc3cc(F)c(F)cc3F)c2=O)n1 [ensitrelvir],,,,,,inhibitory effect on infected cells (229E-CoV): no inhibitory effect
CN(C)C(=O)COC(=O)Cc1ccc(OC(=O)c2ccc(NC(=N)N)cc2)cc1 [camostat mesylate],,significantly inhibited,,,,cell toxicity (ACE2plusC3 cells): without causing cell toxicity; SARS-COV-2-driven entry and infection (SARS-COV-2): significantly reduces
CCCCCCCCCC(=O)N[C@@H](CCCN=C(N)N)C(=O)N[C@H](C(=O)N[C@@H](CCCCN)C(=O)N[C@@H](CCCN=C(N)N)C(=O)CCl)C(C)C [decanoyl-RVKR-CMK] (Decanoyl-RVKR-CH2Cl),,,,,,inhibition of infection by plaque assay (viral titer) (SARS-COV-2 (WA1/2020)): moderate inhibition of infection; inhibition of infection by immunofluorescence [1]: moderate inhibition of infection
N#C[C@H](C[C@@H]1CCCNC1=O)NC(=O)[C@H](CC1CC1)NC(=O)c1cc2cccc(Cl)c2[nH]1 [pomotrelvir],,,,,,IC50 (229E-CoV): 0.818 to 1.03 µM
CCCCN(CCCC)CCC(O)c1cc2c(Cl)cc(Cl)cc2c2cc(C(F)(F)F)ccc12 (stereo not drawn) [halofantrine],,,,4,80 to 95,binding to main protease [2]: effectively binds
O=c1nc(NO)ccn1[C@@H]1O[C@H](CO)[C@@H](O)[C@H]1O [EIDD-1931],dose-dependent inhibition of infection,strong inhibition efficacy,complete inhibition,,,reduction of infection [1]: at least 50%
CCN(CC)Cc1cc(Nc2ccnc3cc(Cl)ccc23)ccc1O [amodiaquine],,,,12 to 12.1,80 to 95,
Cc1c(O)cccc1C(=O)N[C@@H](CSc1ccccc1)[C@H](O)CN1C[C@H]2CCCC[C@H]2C[C@H]1C(=O)NC(C)(C)C [nelfinavir],dose-dependent inhibition of infection,potent and dose-dependent inhibition of infection,did not completely inhibit infection,,,concentration with increased toxicity (ACE2plusC3 cells; human): ≥ 25 µM
CCN(CC)CCCC(C)Nc1ccnc2cc(Cl)ccc12 (stereo not drawn) [chloroquine],,,,12 to 12.1,80 to 95,
